The text below walks through data of patent US9783536B2, “Nitrogen-containing heterocyclic compound or salt thereof” (FUJIFILM Corporation, priority 2013, dated 2017).

Experiment [1] deals with T1, GST fusion human ERK2 protein (Homo sapiens, UniProt P28482).
T1 construct: purchased Carna Biosciences, Inc; host or cells: E. coli expression system
The experiment is described as follows: ERK2 enzyme assay (2). The experiment is classed as biochemical. The note with it: ERK2 enzyme assay (2); read-out: ERK2 enzyme inhibitory activity (2). As to the method: In an ERK2 enzyme assay, GLUTATHIONE S-TRANSFERASE (GST) FUSION HUMAN ERK2 PROTEIN (manufactured by Carna Biosciences, Inc.), which was produced by using an E. coli expression system, was used.
12 μL of a reaction liquid (1.25 nmol/L ERK2, 100 mmol/L Hepes, 10 mmol/L MgCl2, 1.5 mmol/L DTT, 0.003% Brij35, pH 7.5) including ERK2 protein and a test compound having a predetermined concentration was allowed to stand at room temperature for 15 minutes. Then, 3 μL of a mixture liquid of FL-PEPTIDE8 (5-FAM-IPTSPITTTYFFFKKK-COOH) (manufactured by Caliper Life Sciences), which is substrate peptide, and ATP (manufactured by Sigma-Aldrich Co. LLC.) was added thereto such that the final concentrations thereof became 4.25 μmol/L and 1 mmol/L, respectively, and an enzyme reaction was performed by allowing to stand at 25° C. for 120 minutes.
After the reaction, the enzyme reaction was stopped by adding 30 μL of a reaction stopper liquid (100 mmol/L HEPES, 11.2 mmol/L EDTA, 5.6% Brij35, pH 7.5) including a 0.5% COATING REAGENT 8 (trade name, manufactured by Perkin Elmer Inc.) thereto. Then, phosphorylated peptide and non-phosphorylated peptide were separated using LABCHIP EZ READER (trade name, manufactured by Caliper Life Sciences), and the porportion of the phosphorylated peptide was quantified.
(§1) The inhibitory activities of the compounds were evaluated using IC50 (50% inhibitory concentration). The IC50 was calculated using XLFIT (trade name, manufactured by ID Business Solutions).

The next experiment addresses T2, human PI3Kα protein (Homo sapiens, UniProt P42336).
T2 construct: purchased Carna Biosciences, Inc; host or cells: baculovirus expression system
The experiment is described as follows: PI3Kα enzyme assay (ADP-Glo). The experiment is classed as biochemical. The note with it: read-out: PI3Kα enzyme inhibitory activity. The method, then: In a PI3Kα enzyme assay, a product (manufactured by Carna Biosciences, Inc.) obtained by biotinylating a human PI3Kα protein produced by using a baculovirus expression system was used. In addition, in the detection of enzyme activity, ADP-GLO KINASE ASSAY (trade name, manufactured by PROMEGA Corporation) was used.
10 μL of a reaction liquid (4.5 nmol/L PI3Kα, 40 mmol/L Tris-HCl, 20 mmol/L MgCl2, 0.1% BSA, pH 7.5) including the human PI3Kα protein and a test compound having a predetermined concentration was allowed to stand at room temperature for 15 minutes. Then, 5 μL of a mixture liquid of L-α-phosphatidylinositol 4,5-diphosphate (PIP2) (manufactured by Sigma-Aldrich Co. LLC.) and ATP (manufactured by Sigma-Aldrich Co. LLC.), which are substrates, was added thereto such that final concentrations thereof became 50 μmol/L and 100 μmol/L, respectively, and an enzyme reaction was performed by allowing to stand at 25° C. for 60 minutes.
After the reaction, the enzyme reaction was stopped by adding 15 μL of an ADP-GLO REAGENT (trade name, manufactured by PROMEGA Corporation) thereto and allowing to stand at room temperature for 60 minutes. Then, 30 μL of a KINASE DETECTION REAGENT (trade name, manufactured by PROMEGA Corporation) was added thereto, followed by allowing to stand at room temperature for 40 minutes, and ADP produced by the enzyme reaction was quantified by emission intensity.
ENVISION (trade name, manufactured by Perkin Elmer Inc.) was used for the measurement of the emission intensity.
as §1
Background: ADP-Glo turns the ADP formed in a reaction into a luminescent signal.

T1 sequence (P28482 whole entry, the tested form may be a part): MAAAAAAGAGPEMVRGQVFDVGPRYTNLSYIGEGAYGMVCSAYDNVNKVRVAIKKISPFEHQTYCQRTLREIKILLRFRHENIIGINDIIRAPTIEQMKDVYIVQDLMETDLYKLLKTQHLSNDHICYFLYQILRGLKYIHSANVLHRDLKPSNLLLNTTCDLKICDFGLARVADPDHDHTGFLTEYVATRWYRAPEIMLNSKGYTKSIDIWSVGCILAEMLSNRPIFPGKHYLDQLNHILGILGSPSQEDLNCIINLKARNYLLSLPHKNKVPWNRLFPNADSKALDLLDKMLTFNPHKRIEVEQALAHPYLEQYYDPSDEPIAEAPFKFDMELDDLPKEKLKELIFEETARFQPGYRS
T2 sequence (P42336 whole entry): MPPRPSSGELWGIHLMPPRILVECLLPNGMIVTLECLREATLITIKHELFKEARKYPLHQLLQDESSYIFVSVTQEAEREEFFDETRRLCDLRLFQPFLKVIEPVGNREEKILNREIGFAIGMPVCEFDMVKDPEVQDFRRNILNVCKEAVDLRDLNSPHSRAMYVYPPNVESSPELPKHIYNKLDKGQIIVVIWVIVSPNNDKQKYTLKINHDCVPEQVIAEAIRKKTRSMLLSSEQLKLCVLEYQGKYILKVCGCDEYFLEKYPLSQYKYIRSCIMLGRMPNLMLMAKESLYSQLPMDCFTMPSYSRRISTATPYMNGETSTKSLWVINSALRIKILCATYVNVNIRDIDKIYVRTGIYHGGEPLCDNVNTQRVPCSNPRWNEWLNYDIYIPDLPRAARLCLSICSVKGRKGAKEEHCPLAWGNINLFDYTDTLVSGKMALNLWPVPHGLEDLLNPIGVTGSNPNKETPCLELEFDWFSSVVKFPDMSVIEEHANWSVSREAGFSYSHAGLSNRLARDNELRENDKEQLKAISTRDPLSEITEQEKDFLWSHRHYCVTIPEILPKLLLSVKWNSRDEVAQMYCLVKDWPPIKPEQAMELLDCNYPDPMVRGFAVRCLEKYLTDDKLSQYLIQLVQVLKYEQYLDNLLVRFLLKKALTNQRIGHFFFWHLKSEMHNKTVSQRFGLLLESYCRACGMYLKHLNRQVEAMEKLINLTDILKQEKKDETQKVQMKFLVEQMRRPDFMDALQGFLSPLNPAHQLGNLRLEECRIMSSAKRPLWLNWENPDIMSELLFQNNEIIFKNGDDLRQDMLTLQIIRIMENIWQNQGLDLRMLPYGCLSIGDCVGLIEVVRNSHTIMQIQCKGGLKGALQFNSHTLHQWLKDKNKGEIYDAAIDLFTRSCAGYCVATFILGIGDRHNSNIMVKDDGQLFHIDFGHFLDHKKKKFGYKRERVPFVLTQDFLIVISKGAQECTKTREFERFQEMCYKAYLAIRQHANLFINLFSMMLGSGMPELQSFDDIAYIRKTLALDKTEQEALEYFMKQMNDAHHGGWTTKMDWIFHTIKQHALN
T2 sequence (P27986 whole entry partner): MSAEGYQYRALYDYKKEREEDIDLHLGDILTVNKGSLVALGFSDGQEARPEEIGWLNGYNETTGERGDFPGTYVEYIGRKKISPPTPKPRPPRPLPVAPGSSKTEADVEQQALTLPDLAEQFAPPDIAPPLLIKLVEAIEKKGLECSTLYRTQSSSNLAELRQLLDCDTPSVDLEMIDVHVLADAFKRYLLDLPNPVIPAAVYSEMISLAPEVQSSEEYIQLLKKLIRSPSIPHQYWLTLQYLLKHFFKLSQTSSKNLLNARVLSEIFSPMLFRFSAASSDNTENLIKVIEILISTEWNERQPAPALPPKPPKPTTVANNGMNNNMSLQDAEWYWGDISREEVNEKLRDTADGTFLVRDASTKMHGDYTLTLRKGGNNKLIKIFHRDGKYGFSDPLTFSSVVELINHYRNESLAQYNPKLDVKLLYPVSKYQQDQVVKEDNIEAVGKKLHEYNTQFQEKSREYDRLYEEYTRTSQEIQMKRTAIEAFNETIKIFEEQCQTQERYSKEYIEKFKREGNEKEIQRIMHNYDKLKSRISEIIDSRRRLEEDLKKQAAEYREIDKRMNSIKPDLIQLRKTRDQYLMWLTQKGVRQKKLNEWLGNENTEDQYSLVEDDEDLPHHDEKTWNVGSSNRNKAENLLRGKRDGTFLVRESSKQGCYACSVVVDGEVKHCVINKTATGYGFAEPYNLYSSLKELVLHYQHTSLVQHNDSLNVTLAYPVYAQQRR

Regarding `CC(C)c1cnnc(Nc2ccc3ncc(-c4cnn(CCCN5C[C@@H](C)N(C(=O)N(C)C)[C@@H](C)C5)c4)cc3n2)c1` [Example 0436], the IC50 (in experiment [1]; on human PI3Kα protein) was below 1000 nM each time.
As to `CCOC(=O)N1CCN(CCCn2cc(-c3cnc4ccc(Nc5cc(C(C)C)cnn5)nc4c3)cn2)CC1` [Example 0437, Ethyl 4-(3-(4-(6-((5-isopropylpyridazin-3-yl)amino)-1,5-naphthyridin-3-yl)-1H-pyrazol-1-yl)propyl)piperazine-1-carboxylate], the IC50 (in experiment [1]; at human PI3Kα protein) was below 1000 nM throughout.
Regarding `CC(=O)N1CC(Cn2cc(-c3cnc4ccc(Nc5cc(C(C)C)cnn5)nc4c3)cn2)C1` [Example 0438, 1-(3-((4-(6-((5-isopropylpyridazin-3-yl)amino)-1,5-naphthyridin-3-yl)-1H-pyrazol-1-yl)methyl)azetidin-1-yl)ethanone], the IC50 (in experiment [1]; at human PI3Kα protein) was below 1000 nM each time.
With `CCn1cc(-c2cnc3ccc(Nc4cc(C(C)C)cnn4)nc3c2)cn1` [Example 0440, 7-(1-Ethyl-1H-pyrazol-4-yl)-N-(5-isopropylpyridazin-3-yl)-1,5-naphthyridine-2-amine], the IC50 (in experiment [1]; on human PI3Kα protein) was below 1000 nM each time.
Regarding `CCCn1cc(-c2cnc3ccc(Nc4cc(C(C)C)cnn4)nc3c2)cn1` [Example 0441], the IC50 (in experiment [1]; at human PI3Kα protein) was below 1000 nM in each case.
On to `CC(C)c1cnnc(Nc2ccc3ncc(-c4cnn(C(C)C)c4)cc3n2)c1` [Example 0442], for which the IC50 (in experiment [1]; on human PI3Kα protein) was below 1000 nM throughout.
For the compound `CC(C)c1cnnc(Nc2ccc3ncc(-c4cnn(CCCN5CCN(c6ccccn6)CC5)c4)cc3n2)c1` [Example 0444], the IC50 (in experiment [1]; on human PI3Kα protein) was below 1000 nM in each case.
Take `CC(C)c1cnnc(Nc2ccc3ncc(-c4cnn(CCCN5CCN(c6ccncc6)CC5)c4)cc3n2)c1` [Example 0445]: the IC50 (in experiment [1]; on human PI3Kα protein) was below 1000 nM in each case.
For the compound `CC(C)c1cnnc(Nc2ccc3ncc(-c4cnn(CCCN5CCN(c6cccnc6)CC5)c4)cc3n2)c1` [Example 0446], the IC50 (in experiment [1]; on human PI3Kα protein) was below 1000 nM in each case.
With `CC(C)c1cnnc(Nc2ccc3nccc(-c4cnn(C)c4)c3n2)c1` [Example 0447, N-(5-isopropylpyridazin-3-yl)-8-(1-methyl-1H-pyrazol-4-yl)-1,5-naphthyridine-2-amine], the IC50 in experiment [1] was 1000 to 10000 nM; on human PI3Kα protein, below 1000 nM.
Take `Cc1cnnc(Nc2ccc3nccc(-c4cnn(C)c4)c3n2)c1` [Example 0448, 8-(1-Methyl-1H-pyrazol-4-yl)-N-(5-methylpyridazin-3-yl)-1,5-naphthyridine-2-amine]: the IC50 in experiment [1] was 1000 to 10000 nM; at human PI3Kα protein, below 1000 nM.
Taken in the same sequence, the figures for `CC(C)c1cnnc(Nc2ccc3ncc(-c4cnn(Cc5cscn5)c4)cc3n2)c1` [Example 0449] were below 1000 nM and below 1000 nM.
In the case of `COc1cncc(-c2nn(C)cc2-c2cnc3ccc(Nc4cc(C(C)C)cnn4)nc3c2)c1` [Example 0451], the IC50 (in experiment [1]; at human PI3Kα protein) was below 1000 nM each time.
For `COc1cccc(-c2nn(C)cc2-c2cnc3ccc(Nc4cc(C(C)C)cnn4)nc3c2)c1` [Example 0452], the IC50 (in experiment [1]; on human PI3Kα protein) was below 1000 nM each time.
As to `COc1ccc(Cn2cc(-c3cnc4ccc(Nc5cc(C(C)C)cnn5)nc4c3)cn2)cn1` [Example 0453, N-(5-isopropylpyridazin-3-yl)-7-(1-((6-methoxypyridin-3-yl)methyl)-1H-pyrazol-4-yl)-1,5-naphthyridine-2-amine], the IC50 (in experiment [1]; on human PI3Kα protein) was below 1000 nM throughout.
Regarding `COc1ncccc1Cn1cc(-c2cnc3ccc(Nc4cc(C(C)C)cnn4)nc3c2)cn1` [Example 0454], the IC50 (in experiment [1]; at human PI3Kα protein) was below 1000 nM each time.
As for `Cc1cnnc(Nc2ccc3ncc(-c4cn(C)nc4-c4ccc(C#N)nc4)cc3n2)c1` [Example 0457], the IC50 is 10000 to 50000 nM in experiment [1] and below 1000 nM on human PI3Kα protein.
With `COc1ccc(-c2nn(C)cc2-c2cnc3ccc(Nc4cc(C)cnn4)nc3c2)cn1` [Example 0458], the IC50 in experiment [1] was 10000 to 50000 nM; at human PI3Kα protein it was below 1000 nM.
For `CC(=O)Nc1ccc(-c2nn(C)cc2-c2cnc3ccc(Nc4cc(C(C)C)cnn4)nc3c2)cn1` [Example 0459], the IC50 (in experiment [1]; at human PI3Kα protein) was below 1000 nM in each case.
For `CC(C)c1cnnc(Nc2ccc3ncc(-c4cn(C)nc4-c4ccc(N)nc4)cc3n2)c1` [Example 0461, 7-(3-(6-aminopyridin-3-yl)-1-methyl-1H-pyrazol-4-yl)-N-(5-isopropylpyridazin-3-yl)-1,5-naphthyridine-2-amine], the IC50 (in experiment [1]; on human PI3Kα protein) was below 1000 nM each time.
For the compound `c1cncc(Cn2cc(-c3cnc4ccc(Nc5cc(C6CC6)cnn5)nc4c3)cn2)c1` [Example 0463, N-(5-cyclopropylpyridazin-3-yl)-7-(1-(pyridin-3-ylmethyl)-1H-pyrazol-4-yl)-1,5-naphthyridine-2-amine], the IC50 (in experiment [1]; at human PI3Kα protein) was below 1000 nM in each case.
With `CC(C)c1cnnc(Nc2ccc3ncc(-c4cnn(Cc5ccc(N)nc5)c4)cc3n2)c1` [Example 0464], the IC50 (in experiment [1]; on human PI3Kα protein) was below 1000 nM throughout.
For the compound `CC(C)c1cnnc(Nc2ccc3ncc(-c4cnn(CCF)c4)cc3n2)c1` [Example 0466], the IC50 (in experiment [1]; on human PI3Kα protein) was below 1000 nM each time.
For `CC(C)c1cnnc(Nc2ccc3ncc(-c4cnn(CC(F)F)c4)cc3n2)c1` [Example 0467], the IC50 (in experiment [1]; at human PI3Kα protein) was below 1000 nM each time.
With `CC(C)c1cnnc(Nc2ccc3ncc(-c4cnn(CCCCl)c4)cc3n2)c1` [Example 0468], the IC50 (in experiment [1]; on human PI3Kα protein) was below 1000 nM throughout.
In the case of `CC(C)c1cnnc(Nc2ccc3ncc(-c4cn(C)nc4Nc4cccnc4)cc3n2)c1` [Example 0469], the IC50 (in experiment [1]; on human PI3Kα protein) was below 1000 nM throughout.
Take `CC(=O)Nc1ccc(Cn2cc(-c3cnc4ccc(Nc5cc(C(C)C)cnn5)nc4c3)cn2)cc1` [Example 0470, N-(4-((4-(6-((5-isopropylpyridazin-3-yl)amino)-1,5-naphthyridin-3-yl)-1H-pyrazol-1-yl)methyl)phenyl)acetamide]: the IC50 (in experiment [1]; on human PI3Kα protein) was below 1000 nM in each case.
As to `CC(=O)N1CCC(n2cc(-c3cnc4ccc(Nc5cc(C(C)C)cnn5)nc4c3)cn2)CC1` [Example 0478, 1-(4-(4-(6-((5-Isopropylpyridazin-3-yl)amino)-1,5-naphthyridin-3-yl)-1H-pyrazol-1-yl)piperidin-1-yl)ethanone], the IC50 (in experiment [1]; at human PI3Kα protein) was below 1000 nM in each case.
On to `CC(C)c1cnnc(Nc2ccc3ncc(-c4cnn(C5CCN(CCO)CC5)c4)cc3n2)c1` [Example 0480, 2-(4-(4-(6-((5-Isopropylpyridazin-3-yl)amino)-1,5-naphthyridin-3-yl)-1H-pyrazol-1-yl)piperidin-1-yl)ethanol], for which the IC50 (in experiment [1]; on human PI3Kα protein) was below 1000 nM each time.
Take `CC(C)c1cnnc(Nc2ccc3ncc(-c4cnn(C(C)(C)C)c4)cc3n2)c1` [Example 0481]: the results for the IC50 (in experiment [1]; at human PI3Kα protein) were below 1000 nM and 1000 to 10000 nM, respectively.
On to `CC(C)c1cnnc(Nc2ccc3ncc(-c4cnn(CCC5CCOCC5)c4)cc3n2)c1` [Example 0483], for which the IC50 (in experiment [1]; on human PI3Kα protein) was below 1000 nM in each case.
On to `COCC(COC)Cn1cc(-c2cnc3ccc(Nc4cc(C(C)C)cnn4)nc3c2)cn1` [Example 0484], for which the IC50 (in experiment [1]; on human PI3Kα protein) was below 1000 nM in each case.
